Activity calls are given as the source filed them. The rule behind the calls is not given here.
Legend:
Staphylococcus aureus [1] = assay: Antibacterial activity against methicillin-resistant Staphylococcus aureus 330041 assessed as inhibition of bacterial growth incubated for 16 to 18 hrs by CLSI based two-fold serial dilution method; format: functional; settings: time 16-18 hrs
Staphylococcus aureus [2] = assay: Antibacterial activity against methicillin-resistant Staphylococcus aureus 3390 assessed as inhibition of bacterial growth incubated for 16 to 18 hrs by CLSI based two-fold serial dilution method; format: functional; settings: time 16-18 hrs
Staphylococcus aureus [3] = assay: Antibacterial activity against methicillin-resistant Staphylococcus aureus 3392 assessed as inhibition of bacterial growth incubated for 16 to 18 hrs by CLSI based two-fold serial dilution method; format: functional; settings: time 16-18 hrs
Staphylococcus aureus [4] = assay: Antibacterial activity against methicillin-resistant Staphylococcus aureus USA300 assessed as inhibition of bacterial growth incubated for 16 to 18 hrs by CLSI based two-fold serial dilution method; format: functional; settings: time 16-18 hrs
Acinetobacter baumannii [5] = assay: Antibacterial activity against Acinetobacter baumannii 1309 assessed as inhibition of bacterial growth incubated for 16 to 18 hrs by CLSI based two-fold serial dilution method; format: functional; settings: time 16-18 hrs
Acinetobacter baumannii [6] = assay: Antibacterial activity against Acinetobacter baumannii 1310 assessed as inhibition of bacterial growth incubated for 16 to 18 hrs by CLSI based two-fold serial dilution method; format: functional; settings: time 16-18 hrs
Pseudomonas aeruginosa [7] = assay: Antibacterial activity against Pseudomonas aeruginosa 408 assessed as inhibition of bacterial growth incubated for 16 to 18 hrs by CLSI based two-fold serial dilution method; format: functional; settings: time 16-18 hrs
Pseudomonas aeruginosa [8] = assay: Antibacterial activity against Pseudomonas aeruginosa 535 assessed as inhibition of bacterial growth incubated for 16 to 18 hrs by CLSI based two-fold serial dilution method; format: functional; settings: time 16-18 hrs
[9] = Cytotoxicity against human L02 cells assessed as inhibition of cell growth incubated for 24 hrs by MTT assay; format: toxicity, cell-based
HEK-293T = assay: Cytotoxicity against HEK293T cells assessed as effect on cell viability at 35 ug/ml incubated for 24 hrs by MTT assay; format: toxicity, cell-based; settings: human, dose 35 µg/ml
Erythrocyte [10] = assay: Hemolytic activity in sheep RBC at 30 ug/ml incubated for 1 hr by absorbance based analysis; format: toxicity, cell-based, Ovis aries; settings: dose 30 µg/ml
Staphylococcus aureus [11] = assay: Bactericidal against methicillin-resistant Staphylococcus aureus USA300 assessed as elimination of bacterial colonies at 16 ug/ml measured within 5 hrs by time kill assay relative to control; format: functional; settings: dose 16 µg/ml
Staphylococcus aureus [12] = assay: Bactericidal against methicillin-resistant Staphylococcus aureus USA300 assessed as reduction in bacterial colonies at 32 ug/ml measured upto 7 hrs by time kill assay; format: functional, organism-based; settings: dose 32.0 µg/ml
Staphylococcus aureus [13] = assay: Bactericidal against methicillin-resistant Staphylococcus aureus USA300 assessed as total eradication of bacterial colonies at 1 to 2 times MIC measured upto 7 hrs by time kill assay; format: functional, organism-based
Staphylococcus aureus [14] = assay: Resistance development in methicillin-resistant Staphylococcus aureus USA300 assessed as increase in MIC measured after 15 passages; format: functional, organism-based
Cell membrane [15] = assay: Induction of cell membrane damage in methicillin-resistant Staphylococcus aureus USA300 assessed as appearance of wrinkles in cell surface at 16 ug/ml measured after 0.5 hrs by SEM analysis; format: cell membranes; settings: dose 16.0 µg/ml
Cell membrane [16] = assay: Induction of cell membrane damage in methicillin-resistant Staphylococcus aureus USA300 assessed as disruption of cell membrane at 16 ug/ml measured after 0.5 hrs by SEM analysis; format: cell membranes; settings: dose 16.0 µg/ml
Cell membrane [17] = assay: Disruption of cell membrane integrity in methicillin-resistant Staphylococcus aureus USA300 assessed as increase in fluorescence intensity measured after 0 to 30 mins by SYTOX Green staining based analysis; format: cell membranes; settings: dose 2-16 µg/ml, time 0-30 min
Staphylococcus aureus [18] = assay: Antibacterial activity against methicillin-resistant Staphylococcus aureus USA300 infected in ICR mouse assessed as reduction in bacterial load in infected thigh at 10 mg/kg, sc pre-infected with bacteria for 2 hrs followed by compound administration as dual dose and measured after 3 days; format: functional, organism-based; settings: time 3.0 day
[19] = Toxicity in ICR mouse infected with methicillin-resistant Staphylococcus aureus USA300 assessed as reduction in body weight at 10 mg/kg, sc administered as dual dose and measured after 3 days; format: organism-based; settings: in vivo, 72 h, time 3 day
Erythrocyte [20] = assay: Hemolytic activity in sheep RBC at 20 ug/ml incubated for 1 hr by absorbance based analysis; format: toxicity, cell-based, Ovis aries; settings: dose 20 µg/ml
Staphylococcus aureus [21] = assay: Bactericidal against methicillin-resistant Staphylococcus aureus USA300 assessed as elimination of bacterial colonies at 16 ug/ml measured within 3 hrs by time kill assay relative to control; format: functional; settings: dose 16 µg/ml
Cell membrane [22] = assay: Induction of cell membrane damage in methicillin-resistant Staphylococcus aureus USA300 assessed as appearance of wrinkles in cell surface at 8 ug/ml measured after 0.5 hrs by SEM analysis; format: cell membranes; settings: dose 8.0 µg/ml
Cell membrane [23] = assay: Induction of cell membrane damage in methicillin-resistant Staphylococcus aureus USA300 assessed as disruption of cell membrane at 8 ug/ml measured after 0.5 hrs by SEM analysis; format: cell membranes; settings: dose 8.0 µg/ml
Cell membrane [24] = assay: Disruption of cell membrane integrity in methicillin-resistant Staphylococcus aureus USA300 assessed as increase in fluorescence intensity measured after 0 to 100 mins by SYTOX Green staining based analysis; format: cell membranes; settings: dose 2-32 µg/ml, time 0-100 min
Staphylococcus aureus [25] = assay: Antibacterial activity against methicillin-resistant Staphylococcus aureus USA300 infected in ICR mouse assessed as reduction in bacterial load in infected thigh at 20 mg/kg, sc pre-infected with bacteria for 2 hrs followed by compound administration as dual dose and measured after 3 days; format: functional, organism-based; settings: time 3.0 day
[26] = Toxicity in ICR mouse infected with methicillin-resistant Staphylococcus aureus USA300 assessed as reduction in body weight at 20 mg/kg, sc administered as dual dose and measured after 3 days; format: organism-based; settings: in vivo, 72 h, time 3 day

Row | Structure (SMILES) | MIC (Staphylococcus aureus [1]) [µg/mL] | MIC (Staphylococcus aureus [2]) [µg/mL] | MIC (Staphylococcus aureus [3]) [µg/mL] | MIC (Staphylococcus aureus [4]) [µg/mL] | MIC (Acinetobacter baumannii [5]) [µg/mL] | MIC (Acinetobacter baumannii [6]) [µg/mL] | MIC (Pseudomonas aeruginosa [7]) [µg/mL] | MIC (Pseudomonas aeruginosa [8]) [µg/mL] | IC50 at 24 h [9] [µg/mL] | Activity (HEK-293T) | Activity (Staphylococcus aureus [12]) | Activity (Staphylococcus aureus [13]) | Activity (Staphylococcus aureus [14]) | other results
1 | Br.O=C(CCCCCCCCC[P+](c1ccc(F)cc1)(c1ccc(F)cc1)c1ccc(F)cc1)OC[C@H](NC(=O)C(Cl)Cl)[C@H](O)c1ccc([N+](=O)[O-])cc1 | 1 | 2 | 2 | 2 | > 64 | > 64 | > 64 | > 64 | > 64 | Non-Toxic | Active | inactive | inactive | Activity (Erythrocyte [10]): Non-Toxic; Activity (Staphylococcus aureus [11]): 100%; Activity (Cell membrane [15]): Active; Activity (Cell membrane [16]): Active; Activity (Cell membrane [17]): Dose-Dependent Effect; Activity (Staphylococcus aureus [18]): inactive; Activity [19]: Non-Toxic
2 | Br.O=C(CCCCCCCCC[P+](c1ccccc1)(c1ccccc1)c1ccccc1)OC[C@H](NC(=O)C(Cl)Cl)[C@H](O)c1ccc([N+](=O)[O-])cc1 | 1 | 1 | 1 | 1 | > 64 | 32 | > 64 | > 64 | > 32 | Non-Toxic | Active | inactive | inactive | Activity (Erythrocyte [20]): Non-Toxic; Activity (Staphylococcus aureus [21]): 100%; Activity (Cell membrane [22]): Active; Activity (Cell membrane [23]): Active; Activity (Cell membrane [24]): Dose-Dependent Effect; Activity (Staphylococcus aureus [25]): Active; Activity [26]: Non-Toxic

— ChEMBL document CHEMBL5537147, “Development of membrane-targeting TPP+-chloramphenicol conjugates to combat methicillin-resistant staphylococcus aureus (MRSA) infections” (Eur J Med Chem, 2024)
